Test system: HFD-fed wild-type mice
Assay: Sphingolipid levels in tissues and serum of HFD-fed mice by mass spectrometry
Type: in vivo, mouse
Settings: average ± SD
Method: Six-week-old wild-type male mice were fed HFD for 4 weeks or 7 months In total, 5 mg/Kg of PBS, Adiporon, AdipoRonPEG5, AdipoRonPEG6HTL were injected twice a day for 5 days. After 5 days of treatment, systemic test is performed, and serum (Before and after treatment), subcutaneous, epididymal, liver, heart samples were harvested for qPCR and sphingolipid analysis.
Flash-frozen tissue samples (~40 mg) in a borosilicate glass tube were quenched with 2.0 ml of organic extraction solvent (isopropanol: ethyl acetate, 15:85; v:v) and homogenized with a mechanical tissue disruptor. Immediately afterward, 20 μl of organic internal standard solution was added (Ceramide/Sphingoid Internal Standard Mixture II diluted 1:10 in ethanol). The mixture was vortexed for 20 s and sonicated in ultrasonic bath for 40 min at 40°C. The organic extract was allowed to reach room temperature, and 1.5 ml of HPLC water was added and a two-phase liquid-liquid extraction was performed. The upper phase was transferred to a new clean tube, and the lower aqueous phase containing the protein pellet was re-extracted with additional 2.0 ml of organic extraction solvent. The organic phases were combined and dried under nitrogen stream at 40°C. Dried extracts were stored at –80°C until analysis. For analysis of ceramides and sphingoid base species, the dried residues were reconstituted in 200 μl of methanol. Sphingomyelins required a sample dilution of 1:50 in methanol prior to analysis. Serum sphingolipids were extracted using a similar methodology requiring 25 μl of serum.
Liver, subcutaneous adipose tissue, pancreas, pancreatic islets were initially homogenized in 500 μl of cold PBS using an ultrasonic probe disruptor and keeping the sample on ice during sonication. In total, 50 μl of aqueous homogenate was aliquoted for protein determination. In total, 400 μl of the lysate was immediately quenched in 2.0 ml of organic extraction solvent.
In total, 5 μl of reconstituted samples was injected into an LC/MS/MS system for the analysis of ceramides and sphingoid bases, and 1 μl injection was required for the analysis of sphingomyelins. The system consisted of a Shimadzu LCMS-8050 triple-quadrupole mass spectrometer with the dual ion source operating in electrospray positive ionization mode. The mass spectrometer is coupled to a Shimadzu Nexera X2 UHPLC system equipped with three solvent delivery modules LC-30AD, three degassing units DGU-20A5R, an autosampler SIL-30ACMP, and a column oven CTO-20AC operating at 40°C (Shimadzu Scientific Instruments, Columbia, MD). Six sphingoid bases (d18:1 sphingosine, d18:1 sphingosine-1-phosphate, d18:1 deoxysphingosine, d18:0 sphinganine, d18:0 sphinganine-1-phosphate, d18:0 deoxysphinganine) and […] ceramide species and their metabolites (C16:0, C16:0 dihydroceramide, C16:0 glucosylceramide, C16:0 lactosylceramide, C16:0 sphingomyelin, C18:0, C18:0 dihydroceramide, C18:0 glucosylceramide, C18:0 sphingomyelin, C18:1, C20:0, C22:0, C22:0 glucosylceramide, C24:0, C24:0 dihydroceramide, C24:0 lactosylceramide, C24:0 sphingomyelin, C24:1, C24:1 dihydroceramide, C24:1 glucosylceramide, C24:1 sphingomyelin). Quantitative analysis of sphingolipids was achieved using selective reaction monitoring scan mode. Lipid separation was achieved by reverse phase LC on a 2.1 (i.d.) × 150 mm Ascentis Express C8, 2.7 micron (Supelco, Bellefonte, PA) column under gradient elution, using three different mobile phases: eluent A consisting of methanol/water/formic acid, 600/400/0.8, v/v/v with 5 mM ammonium formate, eluent B consisting of methanol/formic acid, 1,000/0.8, v/v with 5 mM ammonium formate, and eluent C consisting of CH3OH/CH2Cl2 350/650. The concentration of each metabolite was determined according to calibration curves using the peak-area ratio of analyte versus corresponding internal standard. Calibration curves were generated using serial dilutions of each target analyte.

[1] = scWAT, 5 mg/kg twice a day 5 days
[2] = serum at day 0 (before treatment)
[3] = serum at day 5, 5 mg/kg twice a day 5 days

## O=C(COc1ccc(C(=O)c2ccccc2)cc1)NC1CCN(Cc2ccccc2)CC1 [AdipoRon]
[1]
  Hexosyl 20:0: 615610.3 ± 235007.39 pg/mg
  Hexosyl 22:0: 6375434.2 ± 2782528.88 pg/mg
  Hexosyl 24:0: 21878746.0 ± 11579620.12 pg/mg
  Hexosyl 24:1: 11496554.3 ± 5647659.03 pg/mg
  Lactosyl 16:0: 45792.6 ± 45798.33 pg/mg
  Lactosyl 18:0: 0.0 ± 0.0 pg/mg
  Lactosyl 22:0: 49816.7 ± 23898.61 pg/mg
  Lactosyl 24:1: 86367.6 ± 22529.94 pg/mg
  Lactosyl C24:0: 55460.5 ± 33843.98 pg/mg
  Sphingaine1P: 35443.6 ± 15686.23 pg/mg
  Sphinganine: 29337.6 ± 16700.68 pg/mg
  Sphingosine: 49182.2 ± 32181.22 pg/mg
  Sphingosine1P: 37612.5 ± 17941.43 pg/mg
  dCer 16:0: 14580.7 ± 4393.04 pg/mg
  dCer 18:0: 17597.9 ± 5214.49 pg/mg
  dCer 20:0: 80869.1 ± 48824.3 pg/mg
  dCer 22:0: 84488 ± 14825 pg/mg
  dCer 24:0: 96632.5 ± 27938.2 pg/mg
  dCer 24:1: 93338.7 ± 29289.58 pg/mg
[2]
  Cer 14:0: 8402.0 ± 1707.95 pg/mg
  Cer 16:0: 25341.1 ± 4464.54 pg/mg
  Cer 18:0: 10061.4 ± 1406.12 pg/mg
  Cer 18:1: 0 pg/mg
  Cer 20:0: 144673.7 ± 32033.84 pg/mg
  Cer 22:0: 2303972.0 ± 309633.22 pg/mg
  Cer 24:0: 1443539.8 ± 157739.65 pg/mg
  Cer 24:1: 986691.7 ± 101968.89 pg/mg
  Cer 26:0: 10057.2 ± 2818.25 pg/mg
  Cer 26:1: 0 pg/mg
  DeoxySphinganie: 0.0 ± 0.0 pg/mg
  Deoxysphingosine: 0.0 ± 0.0 pg/mg
  Hexosyl 14:0: 2960.2 ± 601.74 pg/mg
  Hexosyl 16:0: 3024488.2 ± 155463.13 pg/mg
  Hexosyl 18:0: 47892.4 ± 4333.97 pg/mg
  Hexosyl 20:0: 182974.2 ± 30498.44 pg/mg
  Hexosyl 22:0: 12192915.9 ± 1475247.57 pg/mg
  Hexosyl 24:0: 1341147.2 ± 57498.17 pg/mg
  Hexosyl 24:1: 3535698.6 ± 346272.3 pg/mg
  Lactosyl 16:0: 94073.6 ± 8945.71 pg/mg
  Lactosyl 18:0: 0.0 ± 0.0 pg/mg
  Lactosyl 22:0: 60785.8 ± 9718.01 pg/mg
  Lactosyl 24:1: 85880.2 ± 22412.15 pg/mg
  Lactosyl C24:0: 103502.4 ± 17366.51 pg/mg
  Sphingaine1P: 250934.3 ± 36218.42 pg/mg
  Sphinganine: 45226.5 ± 8665.07 pg/mg
  Sphingosine: 43193.4 ± 8183.0 pg/mg
  Sphingosine1P: 774207.2 ± 25661.64 pg/mg
  dCer 16:0: 16437.5 ± 2669.42 pg/mg
  dCer 18:0: 10213.1 ± 2375.68 pg/mg
  dCer 20:0: 3716.7 ± 0.0 pg/mg
  dCer 22:0: 335078.3 ± 58715.16 pg/mg
  dCer 24:0: 212159.3 ± 42613.52 pg/mg
  dCer 24:1: 111963.9 ± 12779.64 pg/mg
[3]
  Cer 14:0: 9165.8 ± 853.97 pg/mg
  Cer 16:0: 17212.8 ± 1488.18 pg/mg
  Cer 18:0: 8049.1 ± 1033.29 pg/mg
  Cer 18:1: 0 pg/mg
  Cer 20:0: 135037.6 ± 17909.21 pg/mg
  Cer 22:0: 1736100.3 ± 185474.31 pg/mg
  Cer 24:0: 1412623.3 ± 289722.52 pg/mg
  Cer 24:1: 771667.5 ± 65564.62 pg/mg
  Cer 26:0: 11959.9 ± 2614.25 pg/mg
  Cer 26:1: 0 pg/mg
  DeoxySphinganie: 0.0 ± 0.0 pg/mg
  Deoxysphingosine: 0.0 ± 0.0 pg/mg
  Hexosyl 14:0: 2960.2 ± 601.74 pg/mg
  Hexosyl 16:0: 3736352.2 ± 191696.45 pg/mg
  Hexosyl 18:0: 63748.7 ± 18002.6 pg/mg
  Hexosyl 20:0: 245486.5 ± 74132.09 pg/mg
  Hexosyl 22:0: 9390882.1 ± 688490.25 pg/mg
  Hexosyl 24:0: 1430423.2 ± 157556.06 pg/mg
  Hexosyl 24:1: 3036231.9 ± 367214.43 pg/mg
  Lactosyl 16:0: 94265.2 ± 16983.56 pg/mg
  Lactosyl 18:0: 0.0 ± 0.0 pg/mg
  Lactosyl 22:0: 58253.0 ± 5503.82 pg/mg
  Lactosyl 24:1: 124049.2 ± 19300.14 pg/mg
  Lactosyl C24:0: 122340.7 ± 11760.71 pg/mg
  Sphingaine1P: 423112.6 ± 48511.44 pg/mg
  Sphinganine: 11725.4 ± 1939.02 pg/mg
  Sphingosine: 18235.7 ± 1946.06 pg/mg
  Sphingosine1P: 1139765.2 ± 69403.83 pg/mg
  dCer 16:0: 7198.9 ± 1199.82 pg/mg
  dCer 18:0: 4034.8 ± 845.83 pg/mg
  dCer 20:0: 2973.3 ± 1017.85 pg/mg
  dCer 22:0: 174957.8 ± 18878.67 pg/mg
  dCer 24:0: 105210.1 ± 6589.37 pg/mg
  dCer 24:1: 49553.1 ± 7051.68 pg/mg
